Measured values: the supplement of paper PMC10307832

What was measured:
Experiment in all cases: relative viability (nuclei count vs DMSO), 5 days (fraction); higher = more cells survive
COR-L 105 = system: COR-L 105
In short: (§1)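 Each reported value is a median over duplicate plates. It expresses relative viability: treated-well nuclei count divided by vehicle-well nuclei count. Lung cancer cell lines in 1536-well plates were dosed by pin tool a day after seeding, alone with one drug or with a fixed anchor-drug dose plus five library-drug doses (not always all listed) in √10 steps, and nuclei were counted after 5 days.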

LK-2 = system: LK-2
In short: as §1

LOU-NH91 = system: LOU-NH91
In short: as §1

NCI-H1666 = system: NCI-H1666
In short: as §1

HCC-366 = system: HCC-366
In short: as §1

BEN = system: BEN
In short: as §1

NCI-H1650 = system: NCI-H1650
In short: as §1

NCI-H727 = system: NCI-H727
In short: as §1

NCI-H460 = system: NCI-H460
In short: as §1

NCI-H441 = system: NCI-H441
In short: as §1

PC-14 = system: PC-14
In short: as §1

201T = system: 201T
In short: as §1

NCI-H2170 = system: NCI-H2170
In short: as §1

NCI-H3122 = system: NCI-H3122
In short: as §1

NCI-H2009 = system: NCI-H2009
In short: as §1

EKVX = system: EKVX
In short: as §1

ABC-1 = system: ABC-1
In short: as §1

SW 900 = system: SW 900
In short: as §1

HARA = system: HARA
In short: as §1

NCI-H661 = system: NCI-H661
In short: as §1

NCI-H1437 = system: NCI-H1437
In short: as §1

In the case of `COc1nc(C)cnc1NS(=O)(=O)c1cccnc1-c1ccc(-c2nnco2)cc1` [Zibotentan] + Nc1ncn([C@H]2C[C@H](O)[C@@H](CO)O2)c(=O)n1 [Decitabine] (partner 2 µM), the relative viability (COR-L 105; first compound 0.08 µM) is reported as 0.634, the relative viability (COR-L 105; first compound 0.253 µM) is reported as 0.609 and the relative viability (COR-L 105; first compound 0.8 µM) is reported as 0.711. The relative viability (COR-L 105; first compound 2.53 µM) was 0.615, the relative viability (LK-2; first compound 0.08 µM) was 0.387 and the relative viability (LK-2; first compound 0.253 µM) was 0.289. The relative viability (LK-2; first compound 0.8 µM) was 0.317, the relative viability (LK-2; first compound 2.53 µM) was 0.213 and the relative viability (LOU-NH91; first compound 0.08 µM) was 0.799. For the same molecule, the relative viability (LOU-NH91; first compound 0.253 µM) was 0.78, the relative viability (LOU-NH91; first compound 0.8 µM) was 0.879 and the relative viability (LOU-NH91; first compound 2.53 µM) was 0.815. It also gave a relative viability (NCI-H1666; first compound 0.08 µM) of 0.71, a relative viability (NCI-H1666; first compound 0.253 µM) of 0.685 and a relative viability (NCI-H1666; first compound 0.8 µM) of 0.745. It also gave a relative viability (NCI-H1666; first compound 2.53 µM) of 0.56, a relative viability (HCC-366; first compound 0.08 µM) of 0.391 and a relative viability (HCC-366; first compound 0.253 µM) of 0.317. The relative viability (HCC-366; first compound 0.8 µM) was 0.331, the relative viability (HCC-366; first compound 2.53 µM) was 0.358 and the relative viability (BEN; first compound 0.08 µM) was 0.784. It also gave a relative viability (BEN; first compound 0.253 µM) of 0.691, a relative viability (BEN; first compound 0.8 µM) of 0.734 and a relative viability (BEN; first compound 2.53 µM) of 0.646. It also gave a relative viability (NCI-H1650; first compound 0.08 µM) of 0.393, a relative viability (NCI-H1650; first compound 0.8 µM) of 0.626 and a relative viability (NCI-H1650; first compound 2.53 µM) of 0.488. For the same molecule, the relative viability (NCI-H727; first compound 0.08 µM) was 0.942, the relative viability (NCI-H727; first compound 0.253 µM) was 0.826 and the relative viability (NCI-H727; first compound 0.8 µM) was 0.908. For the same molecule, the relative viability (NCI-H727; first compound 2.53 µM) was 0.874, the relative viability (NCI-H460; first compound 0.08 µM) was 0.444 and the relative viability (NCI-H460; first compound 0.253 µM) was 0.287. For the same molecule, the relative viability (NCI-H460; first compound 0.8 µM) was 0.464, the relative viability (NCI-H460; first compound 2.53 µM) was 0.509 and the relative viability (NCI-H441; first compound 0.08 µM) was 0.244. For the same molecule, the relative viability (NCI-H441; first compound 0.253 µM) was 0.273, the relative viability (NCI-H441; first compound 0.8 µM) was 0.264 and the relative viability (NCI-H441; first compound 2.53 µM) was 0.225. For the same molecule, the relative viability (PC-14; first compound 0.08 µM) was 0.267, the relative viability (PC-14; first compound 0.253 µM) was 0.198 and the relative viability (PC-14; first compound 0.8 µM) was 0.287. It also gave a relative viability (PC-14; first compound 2.53 µM) of 0.265, a relative viability (201T; first compound 0.08 µM) of 0.841 and a relative viability (201T; first compound 0.253 µM) of 0.865. The relative viability (201T; first compound 0.8 µM) was 0.855, the relative viability (201T; first compound 2.53 µM) was 0.919 and the relative viability (NCI-H2170; first compound 0.08 µM) was 0.449. It also gave a relative viability (NCI-H2170; first compound 0.253 µM) of 0.463, a relative viability (NCI-H2170; first compound 0.8 µM) of 0.341 and a relative viability (NCI-H2170; first compound 2.53 µM) of 0.463. It also gave a relative viability (NCI-H3122; first compound 0.08 µM) of 0.472, a relative viability (NCI-H3122; first compound 0.253 µM) of 0.379 and a relative viability (NCI-H3122; first compound 0.8 µM) of 0.357. It also gave a relative viability (NCI-H3122; first compound 2.53 µM) of 0.377, a relative viability (NCI-H2009; first compound 0.08 µM) of 0.404 and a relative viability (NCI-H2009; first compound 0.253 µM) of 0.398. It also gave a relative viability (NCI-H2009; first compound 0.8 µM) of 0.417, a relative viability (NCI-H2009; first compound 2.53 µM) of 0.377 and a relative viability (EKVX; first compound 0.08 µM) of 0.325. The relative viability (EKVX; first compound 0.253 µM) was 0.339, the relative viability (EKVX; first compound 0.8 µM) was 0.286 and the relative viability (EKVX; first compound 2.53 µM) was 0.346. It also gave a relative viability (ABC-1; first compound 0.08 µM) of 0.829, a relative viability (ABC-1; first compound 0.253 µM) of 1.12 and a relative viability (ABC-1; first compound 0.8 µM) of 0.939. The relative viability (ABC-1; first compound 2.53 µM) was 1.06, the relative viability (SW 900; first compound 0.08 µM) was 0.482 and the relative viability (SW 900; first compound 0.253 µM) was 0.345. It also gave a relative viability (SW 900; first compound 0.8 µM) of 0.49, a relative viability (SW 900; first compound 2.53 µM) of 0.438 and a relative viability (HARA; first compound 0.08 µM) of 0.551. For the same molecule, the relative viability (HARA; first compound 0.8 µM) was 0.515, the relative viability (HARA; first compound 2.53 µM) was 0.497 and the relative viability (NCI-H661; first compound 0.08 µM) was 0.557. For the same molecule, the relative viability (NCI-H661; first compound 0.253 µM) was 0.529, the relative viability (NCI-H661; first compound 0.8 µM) was 0.57 and the relative viability (NCI-H661; first compound 2.53 µM) was 0.552. For the same molecule, the relative viability (NCI-H1437; first compound 0.08 µM) was 0.534, the relative viability (NCI-H1437; first compound 0.253 µM) was 0.545 and the relative viability (NCI-H1437; first compound 0.8 µM) was 0.564. For the same molecule, the relative viability (NCI-H1437; first compound 2.53 µM) was 0.556.
